Reference: US12441768B2, “Compositions and methods for treating endometriosis” (EndoMet Biosciences, Inc., priority 2018, dated 2025)
Where a SMILES comes first, the peptide text is derived from it. [ ]: non-standard residue; d: D form. The star is where a group is joined. ξ: configuration not given here. NMeW = CN[C@@H](Cc1c[nH]c2ccccc12)C(=O)O; Palmitoyl = CCCCCCCCCCCCCCCC(=O)*; ξαMeV = CC(C)C(C)(N)C(=O)O; ξαMeS = CC(N)(CO)C(=O)O; GABA = NCCCC(=O)O

How the values were obtained:
[1] = target: Wnt-responsive promoter (TCF/LEF); test: Wnt-dependent luciferase reporter assay; type: cell-based, murine
Protocol: The luciferase reporter assay is commonly used as a tool to study gene expression at the transcriptional level. Peptides from libraries described herein were characterized for ability to suppress transcription in cells with luciferase expression controlled by a Wnt-responsive promoter. Peptides were added to cells transfected with luciferase gene downstream of a Wnt-responsive promoter. Cells were stimulated with Wnt3a protein and incubated with peptides from libraries described herein. Luminescence was recorded to determine the peptides with the highest β-catenin-inhibiting activity. EC50 values were calculated based on the inhibition of luminescence and expressed as concentration (uM) in Table 5.
Peptides were assessed for their ability to inhibit Wnt signaling. Murine 3T3 fibroblasts that express luciferase under a Wnt-responsive promoter (TCF/LEF) (Enzo Life Sciences, Farmingdale, NY) were stimulated with Wnt3a in the presence of increasing concentrations of peptide inhibitor (Hit 1: SEQ ID NO:217, Hit 2: SEQ ID NO:224, Hit 3: SEQ ID NO:228, Hit 4: SEQ ID NO:227, Hit 5: SEQ ID NO:220, Hit 6: SEQ ID NO:168. Hit 7: SEQ ID NO:226) or with vehicle control (FIG. 2A).

β-catenin = target: T1, β-catenin (Homo sapiens, UniProt P35222); test: KD50 measurement using competitive fluorescence polarization (FP) with labelled TCF4; type: binding; conditions: fluorescence polarization, β-catenin; for Kd: read-out: β-Cat FP KD
T1 sequence (P35222 1-781): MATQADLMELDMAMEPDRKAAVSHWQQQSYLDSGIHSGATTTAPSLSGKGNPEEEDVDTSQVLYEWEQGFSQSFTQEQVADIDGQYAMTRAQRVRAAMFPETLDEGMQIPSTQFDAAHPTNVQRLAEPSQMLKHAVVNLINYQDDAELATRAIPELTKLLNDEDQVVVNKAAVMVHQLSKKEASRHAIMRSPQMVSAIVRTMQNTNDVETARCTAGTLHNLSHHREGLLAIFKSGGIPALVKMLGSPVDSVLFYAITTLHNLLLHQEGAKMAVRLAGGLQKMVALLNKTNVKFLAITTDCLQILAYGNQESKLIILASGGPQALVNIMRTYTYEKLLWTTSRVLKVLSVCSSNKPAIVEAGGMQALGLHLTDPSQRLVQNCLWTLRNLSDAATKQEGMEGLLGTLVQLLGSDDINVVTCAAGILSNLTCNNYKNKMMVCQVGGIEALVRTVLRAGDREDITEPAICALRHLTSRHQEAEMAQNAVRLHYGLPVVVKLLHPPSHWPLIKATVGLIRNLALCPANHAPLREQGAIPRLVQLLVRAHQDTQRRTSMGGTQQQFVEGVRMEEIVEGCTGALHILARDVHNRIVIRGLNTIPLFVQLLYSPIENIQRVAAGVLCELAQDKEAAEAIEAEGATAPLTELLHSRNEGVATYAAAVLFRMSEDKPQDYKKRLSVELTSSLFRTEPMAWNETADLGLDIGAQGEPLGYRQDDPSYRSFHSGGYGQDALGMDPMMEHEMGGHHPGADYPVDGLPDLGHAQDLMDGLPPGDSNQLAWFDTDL
Summary of the method: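 Tracer: labelled TCF4, 5 nM; protein 100 nM; RT incubation. Competitor dilution series 10 nM–30 uM. FP read ex 470 / em 520 nm. n = 3.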

EC50 [1] | Kd (β-catenin) | β-Cat FP Hill slope (β-catenin) | SMILES
> 30 µM | > 30 µM |  | CC[C@H](C)[C@H]1NC(=O)[C@@H](CO)NC(=O)[C@@H](CCC(=O)O)NC(=O)[C@H](Cc2c[nH]c3ccccc23)NC(=O)CCCCn2cc(nn2)CC(C(N)=O)NC(=O)[C@H](Cc2c[nH]c3ccccc23)NC(=O)[C@H](C(C)C)NC(=O)[C@H](CCCNC(=N)N)NC(=O)[C@@H](CCC(N)=O)NC(=O)[C@@H](C(C)C)NC(=O)[C@@H](Cc2cnc[nH]2)NC(=O)[C@H](CCC(=O)O)NC(=O)[C@H](CC(=O)O)NC(=O)[C@H](CC(C)C)NC1=O (stereo partly drawn) [compound 33]
> 30 µM | < 0.4 µM | 0.92 | CC[C@H](C)[C@H](NC(=O)[C@H](CO)NC(=O)[C@H](CCC(=O)O)NC(=O)[C@H](Cc1c[nH]c2ccccc12)NC(=O)[C@@H](N)CCSC)C(=O)N[C@@H](CC(C)C)C(=O)N[C@@H](CC(=O)O)C(=O)N[C@@H](CCC(=O)O)C(=O)N[C@@H](Cc1c[nH]cn1)C(=O)NC(C)(C(=O)N[C@@H](CCC(N)=O)C(=O)N[C@@H](CCCNC(=N)N)C(=O)N[C@H](C(=O)N[C@@H](Cc1c[nH]c2ccccc12)C(=O)NCC(N)=O)C(C)C)C(C)C (stereo partly drawn) [compound 34] (HELM PEPTIDE1{M.W.E.S.I.L.D.E.H.[CC(C)C(C)(N[*:1])C(=O)[*:2]].Q.R.V.W.G.[am]}$$$$V2.0)
> 30 µM | < 0.4 µM | 0.96 | CC[C@H](C)[C@H](NC(=O)C(C)(CO)NC(=O)[C@H](CCC(=O)O)NC(=O)[C@H](Cc1c[nH]c2ccccc12)NC(=O)[C@@H](N)CCSC)C(=O)N[C@@H](CC(C)C)C(=O)N[C@@H](CC(=O)O)C(=O)N[C@@H](CCC(=O)O)C(=O)N[C@@H](Cc1c[nH]cn1)C(=O)N[C@H](C(=O)N[C@@H](CCC(N)=O)C(=O)N[C@@H](CCCNC(=N)N)C(=O)N[C@H](C(=O)N[C@@H](Cc1c[nH]c2ccccc12)C(=O)NCC(N)=O)C(C)C)C(C)C (stereo partly drawn) [compound 35] (HELM PEPTIDE1{M.W.E.[CC(CO)(N[*:1])C(=O)[*:2]].I.L.D.E.H.V.Q.R.V.W.G.[am]}$$$$V2.0)
> 30 µM | < 0.4 µM | 0.87 | CC[C@H](C)[C@H](NC(=O)[C@H](CO)NC(=O)[C@H](CCC(=O)O)NC(=O)[C@H](Cc1c[nH]c2ccccc12)N(C)C(=O)[C@@H](N)Cc1c[nH]c2ccccc12)C(=O)N[C@@H](CC(C)C)C(=O)N[C@@H](CC(=O)O)C(=O)N[C@@H](CCC(=O)O)C(=O)N[C@@H](Cc1c[nH]cn1)C(=O)N[C@H](C(=O)N[C@@H](CCC(N)=O)C(=O)N[C@@H](CCCNC(=N)N)C(=O)N[C@H](C(=O)N[C@@H](Cc1c[nH]c2ccccc12)C(=O)NCC(N)=O)C(C)C)C(C)C [compound 36] (HELM PEPTIDE1{W.[meW].E.S.I.L.D.E.H.V.Q.R.V.W.G.[am]}$$$$V2.0)
> 30 µM | < 0.4 µM | 0.7 | CC[C@H](C)[C@H](NC(=O)[C@H](CO)NC(=O)[C@H](CCC(=O)O)NC(=O)[C@H](Cc1c[nH]c2ccccc12)N(C)C(=O)[C@H](Cc1c[nH]c2ccccc12)NC)C(=O)N[C@@H](CC(C)C)C(=O)N[C@@H](CC(=O)O)C(=O)N[C@@H](CCC(=O)O)C(=O)N[C@@H](Cc1c[nH]cn1)C(=O)N[C@H](C(=O)N[C@@H](CCC(N)=O)C(=O)N[C@@H](CCCNC(=N)N)C(=O)N[C@H](C(=O)N[C@@H](Cc1c[nH]c2ccccc12)C(=O)NCC(N)=O)C(C)C)C(C)C [compound 37] (HELM PEPTIDE1{[meW].[meW].E.S.I.L.D.E.H.V.Q.R.V.W.G.[am]}$$$$V2.0)
> 30 µM | < 0.4 µM | 0.9 | CC[C@H](C)[C@H](NC(=O)C(C)(CO)NC(=O)[C@H](CCC(=O)O)NC(=O)[C@H](Cc1c[nH]c2ccccc12)N(C)C(=O)[C@@H](N)Cc1c[nH]c2ccccc12)C(=O)N[C@@H](CC(C)C)C(=O)N[C@@H](CC(=O)O)C(=O)N[C@@H](CCC(=O)O)C(=O)N[C@@H](Cc1c[nH]cn1)C(=O)NC(C)(C(=O)N[C@@H](CCC(N)=O)C(=O)N[C@@H](CCCNC(=N)N)C(=O)N[C@H](C(=O)N[C@@H](Cc1c[nH]c2ccccc12)C(=O)NCC(N)=O)C(C)C)C(C)C (stereo partly drawn) [compound 38] (HELM PEPTIDE1{W.[meW].E.[CC(CO)(N[*:1])C(=O)[*:2]].I.L.D.E.H.[CC(C)C(C)(N[*:1])C(=O)[*:2]].Q.R.V.W.G.[am]}$$$$V2.0)
> 30 µM | < 0.4 µM | 0.89 | CC[C@H](C)[C@H](NC(=O)[C@H](CO)NC(=O)[C@H](CCC(=O)O)NC(=O)[C@H](Cc1c[nH]c2ccccc12)N(C)C(=O)[C@@H](N)Cc1c[nH]c2ccccc12)C(=O)N[C@@H](CC(C)C)C(=O)N[C@@H](CC(=O)O)C(=O)N[C@@H](CCC(=O)O)C(=O)N[C@@H](Cc1c[nH]cn1)C(=O)NC(C)(C(=O)N[C@@H](CCC(N)=O)C(=O)N[C@@H](CCCNC(=N)N)C(=O)N[C@H](C(=O)N[C@@H](Cc1c[nH]c2ccccc12)C(=O)NCC(N)=O)C(C)C)C(C)C (stereo partly drawn) [compound 39] (HELM PEPTIDE1{W.[meW].E.S.I.L.D.E.H.[CC(C)C(C)(N[*:1])C(=O)[*:2]].Q.R.V.W.G.[am]}$$$$V2.0)
> 30 µM | < 0.4 µM | 0.88 | CC[C@H](C)[C@H](NC(=O)C(C)(CO)NC(=O)[C@H](CCC(=O)O)NC(=O)[C@H](Cc1c[nH]c2ccccc12)N(C)C(=O)[C@@H](N)Cc1c[nH]c2ccccc12)C(=O)N[C@@H](CC(C)C)C(=O)N[C@@H](CC(=O)O)C(=O)N[C@@H](CCC(=O)O)C(=O)N[C@@H](Cc1c[nH]cn1)C(=O)N[C@H](C(=O)N[C@@H](CCC(N)=O)C(=O)N[C@@H](CCCNC(=N)N)C(=O)N[C@H](C(=O)N[C@@H](Cc1c[nH]c2ccccc12)C(=O)NCC(N)=O)C(C)C)C(C)C (stereo partly drawn) [compound 40] (HELM PEPTIDE1{W.[meW].E.[CC(CO)(N[*:1])C(=O)[*:2]].I.L.D.E.H.V.Q.R.V.W.G.[am]}$$$$V2.0)
7.5 to 15 µM | > 30 µM |  | CCCCCCCCCCCCCCCC(=O)N[C@@H](Cc1c[nH]c2ccccc12)C(=O)N(C)[C@@H](Cc1c[nH]c2ccccc12)C(=O)N[C@@H](CCC(=O)O)C(=O)NC(C)(CO)C(=O)N[C@H](C(=O)N[C@@H](CC(C)C)C(=O)N[C@@H](CC(=O)O)C(=O)N[C@@H](CCC(=O)O)C(=O)N[C@@H](Cc1c[nH]cn1)C(=O)NC(C)(C(=O)N[C@@H](CCC(N)=O)C(=O)N[C@@H](CCCNC(=N)N)C(=O)N[C@H](C(=O)N[C@@H](Cc1c[nH]c2ccccc12)C(=O)O)C(C)C)C(C)C)[C@@H](C)CC (stereo partly drawn) [compound 397] (Palmitoyl-W[NMeW]E[ξαMeS]ILDEH[ξαMeV]QRVW-OH)
7.5 to 15 µM |  |  | CCCCCCCCCCCCCCCC(=O)NCC(=O)N[C@@H](Cc1c[nH]c2ccccc12)C(=O)N(C)[C@@H](Cc1c[nH]c2ccccc12)C(=O)N[C@@H](CCC(=O)O)C(=O)NC(C)(CO)C(=O)N[C@H](C(=O)N[C@@H](CC(C)C)C(=O)N[C@@H](CC(=O)O)C(=O)N[C@@H](CCC(=O)O)C(=O)N[C@@H](Cc1c[nH]cn1)C(=O)NC(C)(C(=O)N[C@@H](CCC(N)=O)C(=O)N[C@@H](CCCNC(=N)N)C(=O)N[C@H](C(=O)N[C@@H](Cc1c[nH]c2ccccc12)C(=O)O)C(C)C)C(C)C)[C@@H](C)CC (stereo partly drawn) [compound 398] (Palmitoyl-GW[NMeW]E[ξαMeS]ILDEH[ξαMeV]QRVW-OH)
7.5 to 15 µM |  |  | CCCCCCCCCCCCCCCC(=O)NCCCC(=O)N[C@@H](Cc1c[nH]c2ccccc12)C(=O)N(C)[C@@H](Cc1c[nH]c2ccccc12)C(=O)N[C@@H](CCC(=O)O)C(=O)NC(C)(CO)C(=O)N[C@H](C(=O)N[C@@H](CC(C)C)C(=O)N[C@@H](CC(=O)O)C(=O)N[C@@H](CCC(=O)O)C(=O)N[C@@H](Cc1c[nH]cn1)C(=O)NC(C)(C(=O)N[C@@H](CCC(N)=O)C(=O)N[C@@H](CCCNC(=N)N)C(=O)N[C@H](C(=O)N[C@@H](Cc1c[nH]c2ccccc12)C(=O)O)C(C)C)C(C)C)[C@@H](C)CC (stereo partly drawn) [compound 400] ({Palmitoyl-GABA}-W[NMeW]E[ξαMeS]ILDEH[ξαMeV]QRVW-OH)
